Experimental data as given in ChEMBL document CHEMBL1158924, “Cytotoxic constituents of the bark of Plumeria rubra collected in Indonesia” (1990).
≈ marks a conversion by molar mass, not a printed value.

Tests used:
Type in all cases: functional
HT-1080 = assay: Cytotoxicity against human HT1080 cells; conditions: read-out: ED50 (the source's name)
[1] = Cytotoxicity against human melanoma cells; conditions: Melanoma cell, read-out: ED50 (the source's name)
[2] = Cytotoxicity against human breast cancer cells; conditions: Cancer cell lines, read-out: ED50 (the source's name)
[3] = Cytotoxicity against human lung cancer cells; conditions: Cancer cell lines, read-out: ED50 (the source's name)
[4] = Cytotoxicity against human colon cancer cells; conditions: Cancer cell lines, read-out: ED50 (the source's name)
KB = assay: Cytotoxicity against human KB cells; conditions: read-out: ED50 (the source's name)
P388 = assay: Cytotoxicity against mouse P388 cells; conditions: read-out: ED50 (the source's name)

C[C@H](O)C1=C[C@@]2(C=C[C@@H]3C(C(=O)O)=CO[C@@H](O[C@@H]4O[C@H](CO)[C@@H](O)[C@H](O)[C@H]4O)[C@@H]32)OC1=O showed an EC50 (HT-1080) greater than 50 µg/mL, an EC50 [1] greater than 50 µg/mL and an EC50 [2] greater than 50 µg/mL. It also gave an EC50 [3] greater than 50 µg/mL, an EC50 [4] greater than 50 µg/mL and an EC50 (KB) greater than 50 µg/mL. It also gave an EC50 (P388) greater than 50 µg/mL.
COC1=CC(=O)C(OC)=CC1=O gave an EC50 (HT-1080) of 3.4 µg/mL (≈ 20.2 µM), an EC50 [1] of 2.7 µg/mL (≈ 16.1 µM) and an EC50 [2] of 5.2 µg/mL (≈ 30.9 µM). For the same compound, the EC50 [3] was 1.3 µg/mL (≈ 7.73 µM), the EC50 [4] was 1.4 µg/mL (≈ 8.33 µM) and the EC50 (KB) was 3.8 µg/mL (≈ 22.6 µM). For the same compound, the EC50 (P388) was 2.5 µg/mL (≈ 14.9 µM).
COC(=O)C1=CO[C@@H](O[C@@H]2O[C@H](CO)[C@@H](O)[C@H](O)[C@H]2O)[C@H]2[C@@H]1C=C[C@@]21C=C([C@H](C)OC(=O)/C=C/c2ccc(O)cc2)C(=O)O1 gave an EC50 (HT-1080) greater than 50 µg/mL, an EC50 [1] greater than 50 µg/mL and an EC50 [2] greater than 50 µg/mL. It also gave an EC50 [3] greater than 50 µg/mL, an EC50 [4] greater than 50 µg/mL and an EC50 (KB) greater than 50 µg/mL. For the same compound, the EC50 (P388) was greater than 50 µg/mL.
Work on COC(=O)[C@@H]1CO[C@H](O)[C@H]2[C@@H]1C=C[C@@]21C=C([C@H](C)O)C(=O)O1 yielded an EC50 (HT-1080) greater than 50 µg/mL, an EC50 [1] greater than 50 µg/mL and an EC50 [2] greater than 50 µg/mL. It also gave an EC50 [3] greater than 50 µg/mL, an EC50 [4] greater than 50 µg/mL and an EC50 (KB) greater than 50 µg/mL. For the same compound, the EC50 (P388) was greater than 50 µg/mL.
Compound COC(=O)[C@@H]1CO[C@@H](O)[C@H]2[C@@H]1C=C[C@@]21C=C([C@H](C)O)C(=O)O1 has an EC50 (HT-1080) greater than 50 µg/mL, an EC50 [1] greater than 50 µg/mL and an EC50 [2] greater than 50 µg/mL. For the same compound, the EC50 [3] was greater than 50 µg/mL, the EC50 [4] was greater than 50 µg/mL and the EC50 (KB) was greater than 50 µg/mL. It also gave an EC50 (P388) greater than 50 µg/mL.
C/C=C1/C(=O)O[C@@]23C=C[C@H]4[C@@H](C(=O)OC)[C@H](O)O[C@@H](O[C@H]12)[C@H]43 [ALLAMANDIN] showed an EC50 (HT-1080) of 0.8 µg/mL (≈ 2.59 µM), an EC50 [1] of 0.3 µg/mL (≈ 0.973 µM) and an EC50 [2] of 0.4 µg/mL (≈ 1.3 µM). For the same compound, the EC50 [3] was 0.7 µg/mL (≈ 2.27 µM), the EC50 [4] was 0.3 µg/mL (≈ 0.973 µM) and the EC50 (KB) was 0.4 µg/mL (≈ 1.3 µM). For the same compound, the EC50 (P388) was 0.2 µg/mL (≈ 0.649 µM).
For C/C=C1/C(=O)O[C@@]23C=C[C@H]4C[C@H](O)O[C@@H](O[C@H]12)[C@H]43 [ALLAMCIN], the EC50 (HT-1080) was 3.1 µg/mL (≈ 12.4 µM), the EC50 [1] was 0.9 µg/mL (≈ 3.6 µM) and the EC50 [2] was 0.1 µg/mL (≈ 0.4 µM). For the same compound, the EC50 [3] was 1.2 µg/mL (≈ 4.8 µM), the EC50 [4] was 0.3 µg/mL (≈ 1.2 µM) and the EC50 (KB) was 0.3 µg/mL (≈ 1.2 µM). It also gave an EC50 (P388) of 0.2 µg/mL (≈ 0.799 µM).
With C/C=C/C=C1\C=Cc2c(C(=O)OC)coc(=O)c21 [FULVOPLUMIERIN] the EC50 (HT-1080) was 3.4 µg/mL (≈ 13.9 µM), the EC50 [1] was 0.7 µg/mL (≈ 2.87 µM) and the EC50 [2] was 3.5 µg/mL (≈ 14.3 µM). For the same compound, the EC50 [3] was 3 µg/mL (≈ 12.3 µM), the EC50 [4] was 1.3 µg/mL (≈ 5.32 µM) and the EC50 (KB) was 4.6 µg/mL (≈ 18.8 µM). It also gave an EC50 (P388) of 2.5 µg/mL (≈ 10.2 µM).
For COc1cc([C@H]2OC[C@H]3[C@@H]2CO[C@@H]3c2cc(OC)c(O[C@@H]3O[C@H](CO)[C@@H](O)[C@H](O)[C@H]3O)c(OC)c2)cc(OC)c1O[C@@H]1O[C@H](CO)[C@@H](O)[C@H](O)[C@H]1O [LIRIODENDRIN], the EC50 (HT-1080) was 8.9 µg/mL (≈ 12 µM), the EC50 [1] was 19 µg/mL (≈ 25.6 µM) and the EC50 [2] was 30 µg/mL (≈ 40.4 µM). The EC50 [3] was 6 µg/mL (≈ 8.08 µM), the EC50 [4] was 16 µg/mL (≈ 21.5 µM) and the EC50 (KB) was 6 µg/mL (≈ 8.08 µM). It also gave an EC50 (P388) of 2.4 µg/mL (≈ 3.23 µM).
With C/C=C1/C(=O)O[C@]23C=C[C@@H]4C(C(=O)OC)=CO[C@H](O[C@@H]12)[C@@H]43 [PLUMERICIN] the EC50 (HT-1080) was 0.2 µg/mL (≈ 0.689 µM), the EC50 [1] was 2.8 µg/mL (≈ 9.65 µM) and the EC50 [2] was 0.4 µg/mL (≈ 1.38 µM). It also gave an EC50 [3] of 0.2 µg/mL (≈ 0.689 µM), an EC50 [4] of 0.1 µg/mL (≈ 0.345 µM) and an EC50 (KB) of 0.3 µg/mL (≈ 1.03 µM). The EC50 (P388) was 1.2 µg/mL (≈ 4.13 µM).
With COC(=O)C1=CO[C@@H](O[C@@H]2O[C@H](CO)[C@@H](O)[C@H](O)[C@H]2O)[C@H]2[C@@H]1C=C[C@@]21C=C([C@H](C)O)C(=O)O1 [PLUMIERIDE] the EC50 (HT-1080) was greater than 50 µg/mL, the EC50 [1] was greater than 50 µg/mL and the EC50 [2] was greater than 50 µg/mL. For the same compound, the EC50 [3] was greater than 50 µg/mL, the EC50 [4] was greater than 50 µg/mL and the EC50 (KB) was greater than 50 µg/mL. The EC50 (P388) was greater than 50 µg/mL.
